“And” between values parts separate entries of the source, which are not always exact repeats. Equal entries are not always repeated.
Assays:
[1] = system: fungi of the Microsporum genus; experiment: Treatment of ringworm in cats; assay type: in vivo
Text: The preparation was used in treatment of ringworm in cats (two animals) caused by fungi of the Microsporum genus and characterized by appearance of small round bald patches on the face and ears of the animal. The preparation in the form of a 0.1% aqueous solution was applied onto the affected area three times a day for 6 days.

[2] = Solubility in water; assay type: physicochemical; conditions: for solubility in water: maximum concentration in water
Text: (§1) However, this compound is very poorly soluble in aqueous media and in fats. The maximum value of solubility of the known drug in water is 0.002%, and for fats it is no more than 0.001% (octanol, which is a common model of lipids). […] Solutions with such concentration of the active substance are not sufficiently effective. At the same time the task of improvement of efficiency of use of a fungicidal agent in the form of solutions for use in human and veterinary medicine in the form of injections and inhalations and for treatment of a variety of materials and agricultural products is extremely urgent.

[3] = system: Leveillula taurica; experiment: Treatment of powdery mildew on tuberous begonias; assay type: in vivo, Begonia tuberosa hybridum; conditions: spray of 0.1% aqueous solution once a day for 7 days
Protocol: The study was conducted on tuberous begonias (Begonia tuberosa hybridum), infected with powdery mildew. Powdery mildew affects many plants, including trees and shrubs. Powdery mildew affects chrysanthemums, begonias, roses; at that a white, sometimes darkening, plaque appears green parts of the plant. The disease is transmitted by airborne spores. The tested plants were infected with spores of a fungus (Leveillula taurica) when exposed up to appearance of a white plaque on the leaves. Three leaves on each plant were infected. After appearance of the plaque the plants in control group (three plants) were isolated from the three plants treated with a spray of a 0.1% aqueous solution of the presented preparation. The treatment was performed once a day for 7 days. After the treatment was complete, observation over the plants was continued for another three weeks.

[4] = system: Candida fungi; experiment: Treatment of vulvovaginal candidiasis in patients; assay type: in vivo; conditions: douchings morning and evening, 7 days
Protocol: Treatment of Vulvovaginal Candidiasis. In the experiment, the patients, who suffered vulvovaginal candidiasis caused by Candida fungi, were treated using the following aqueous solutions: 1) 0.1% solution of the presented drug (3 persons), 2) 0.002% solution of the prototype drug (3 people). The treatment in the form of dualfold (in the morning and in the evening) douchings was performed for 7 days. The treatment efficacy was assessed by the clinical presentation and the results mycological examination (inoculations on Saburo medium).

[5] = system: Aspergillus niger and Penicillium notatum; experiment: Protection of construction wood against fungal attacks; conditions: 5 days at 30° C.; for growth of test organisms on the boards: humid environment
Protocol: To test the preparation boards by the dimensions of 20×40×2 cm were used. The boards were divided into three groups. Group 1: the boards were impregnated with a 0.3% aqueous solution of the presented formulation. The impregnation was carried out by twofold application of the solution by means of a diffuser with an intermediate drying. Group 2: the boards were impregnated with a 0.02% aqueous solution of the prototype preparation. The impregnation was carried out by twofold application of the solution by means of a diffuser with an intermediate drying. Group 3 (control): the boards were impregnated with distilled water. The impregnation was carried out by twofold application of water by means of a diffuser with an intermediate drying. The boards dried after treatment were soaked in water for two hours, after which they were coated with Aspergillus niger and Penicillium notatum fungi cultures at opposite ends of one side. The boards were placed in thermostats for 5 days at the temperature of 30° C. in a humid environment. After incubation, the boards were visually inspected and inoculations were made from their surface onto a nutrient medium (Sabouraud).

[6] = Solubility in fats / oil solutions; assay type: physicochemical
Text: as §1

[7] = system: Aspergillus niger; experiment: Aspergillus pneumonia in mice, lung colonization after inhalation treatment; assay type: in vivo, white scrub mice
Protocol: The tests were conducted on white scrub mice (female, 6-8 weeks) received from “Rappolovo” breeding nursery (Leningrad reg.), which were kept under supervision for two weeks prior to the experiments on a standard diet in regulated vivarium conditions. Selection of the animals for the experiment group was conducted by the random selection method. For propagation of aspergillus pneumonia, the white scrub mice received a single intraperitoneal injection of a cyclophosphamide solution (150 mg/kg). After 3 days, the mice received a single intraperitoneal injection of a hydrocortisone solution (250 mg/kg). Twenty-four hours after administration of hydrocortisone the mice were intranasally infected with a suspension of Aspergillus niger (approximately 10^7 cells/ml) under ether narcosis. On day 5 after infection 5 animals from each group were taken to study lung colonization (euthanasia in the rodents was performed by overdose of ether). Lung tissues were used to prepare homogenates, in which the titer of Aspergillus fungi was determined. Observation over the remaining mice was carried out for 14 days after infection to record their mortality. The following groups of animals infected with Aspergillus niger were formed in the experiment. 1. Control groups: K1, K2, K3; the animals were exposed to an aerosol of isotonic sodium chloride solution. 2. Groups E1, E2, E3; the animals were administered a 0.1% aqueous solution of the presented preparation in the form of inhalations. 3. Groups P1, P2; the animals were administered an aqueous solution of the prototype fungicidal agent in the form of inhalations in concentrations of 0.002% and 0.001% respectively. The animals were placed into an aerosol chamber (12 liters) for 30 minutes, during which period 500 mL of air pass through their lungs. “OMRON U1” (Japan) ultrasonic nebulizer was used was used as an aerosol generator. To maintain a constant aerosol concentration in the chamber, a pneumatic vortex generator was used in the pulsed spraying mode ensuring a stable aerosol with particle size of 3 microns. The animals were placed in immobilization containers and exposed to the obtained aerosol for 30 minutes 1 time per day for 3 days starting from day 1 after the infection. Samples of homogenized lung tissue were used to prepare a number of successive dilutions followed by sowing on Saburo medium.

[8] = system: Pityrosporum orbiculare-Malassezia furfur; experiment: Treatment of scaly skin disease (Tinea versicolor, Pityriasis versicolor) in patients; assay type: in vivo; conditions: cotton swab 2 times a day, 7 days
Protocol: Treatment of a Fungal Disease of the Skin—Scaly Skin Disease (Tinea Versicolor, Pityriasis versicolor). The disease is caused by a fungus called Pityrosporum orbiculare-Malassezia furfur (mycelial form). The following was prepared for the study: A 0.1% oil (olive oil) solution of the presented preparation and a 0.002% aqueous solution of the prototype substance. As a reference olive oil was used. The study included three groups of patients. Each group included 2 patients with this pathology. Treatment duration was 7 days. The drug was applied with a cotton swab 2 times a day—in the morning and in the evening.

[9] = 0.1% aqueous solution on affected area three times a day for 6 days
[10] = boards impregnated with 0.3% aqueous solution
[11] = boards impregnated with 0.02% aqueous solution
[12] = lung homogenate day 5, 0.001% aqueous solution, inhalation, group P2
[13] = lung homogenate day 5, 0.002% aqueous solution, inhalation, group P1

Molecule: N#CSc1cc(C=Nc2c[nH]c(=O)nc2O)c(O)c(SC#N)c1 [presented preparation]
- inflammatory manifestations [1, 9]: disappearance of inflammatory manifestations was reported
- size of affected areas [1, 9]: the affected areas ceased to increase
- growth from inoculations of swabs from the affected area after treatment ([1]; 0.1% aqueous solution three times a day for 6 days, nutrient media): did not lead to growth on nutrient media
- solubility in water [2]: 0.3-0.4%
- increase in solubility versus prototype ([2]; water and oil solutions): more than a hundred-fold
- growth of fungi after flushing off the leaf and inoculation on a nutrient medium [3]: no growth of the fungi was observed
- increase or spread of the fungus on the plant ([3]; observation three more weeks): no increase or spread of the fungus to other parts of the plant occur
- Complete cure ([4]; 0.1% aqueous solution): Reached
- Mycological cure (reduction in the number of fungi inoculated on a solid medium) ([4]; 0.1% aqueous solution): A tenfold reduction in the number
- growth from control inoculations on nutrient medium (Sabouraud) [5, 10]: did not lead to a growth on the nutrient medium
- growth of test organisms on the boards [5, 10]: No growth of the test organisms was registered
- solubility for oil solutions ([6]; oil solutions): 0.25-0.3%
- Number of colonies (in different dilutions) 10^−2 ([7]; lung homogenate day 5, Saburo medium, 0.1% aqueous solution, inhalation 30 min once daily for 3 days, groups E1-E3): 2 and 4
- Complete cure ([8]; 0.1% oil (olive oil) solution): Reached

Molecule: 2.4-dioxo-5-(2-hydroxy-3.5-dichlorobenzylidene)amino-1.3-pyrimidine [Prototype, reference compound]
- solubility in water [2]: 0.002%
- Complete cure ([4]; 0.002% aqueous solution): Not reached
- Mycological cure (reduction in the number of fungi inoculated on a solid medium) ([4]; 0.002% aqueous solution): 1.7-fold reduction in the number of
- growth from inoculations on nutrient medium (Sabouraud) [5, 11]: later spread in the nutrient medium
- growth of test organisms on the boards [5, 11]: a growth of the inoculated test bacteria can be detected
- solubility in fats ([6]; octanol as common model of lipids): no more than 0.001%
- Number of colonies (in different dilutions) 10^−2 [7, 12]: 37
- Number of colonies (in different dilutions) 10^−4 [7, 12]: 2
- Number of colonies (in different dilutions) 10^−2 [7, 13]: 26
- Number of colonies (in different dilutions) 10^−4 [7, 13]: 1
- Complete cure ([8]; 0.002% aqueous solution): Absent
